Reference: paper PMC4552745, “Novel Gallate Triphenylphosphonium Derivatives with Potent Antichagasic Activity” (PLoS ONE, 2015)

What was measured:
Leishmania brasiliensis = tested on: Leishmania brasiliensis; design: method as in PMID 25144225; conditions: in vitro; cited from earlier work
T. cruzi epimastigotes = tested on: T. cruzi epimastigotes; design: method as in PMID 17673202; conditions: cited from earlier work
Trypanosoma brucei = tested on: Trypanosoma brucei; design: method as in PMID 9657042, PMID 9491765; conditions: Trypanosoma brucei models; cited from earlier work
Trypanosoma cruzi = tested on: Trypanosoma cruzi; design: method as in PMID 2121515; conditions: blood contaminated with Trypanosoma cruzi; cited from earlier work
VERO cells = test: MTT reduction viability assay on VERO cells; type: cell-based; conditions: Chlorocebus sabaeus, 24 hours exposure, mean ± SD
Experimental: (§1) The effect of the drugs on parasite viability was evaluated using the tetrazolium salt (MTT) reduction assay. […] Alternatively, VERO cells attached to the surface of 96-well plates were washed and incubated with MTT (5 mg/mL). After incubation for 4 h at 37°C, the generated formazan crystals were dissolved with 100 μL of 10% (w/v) sodium dodecyl sulfate (SDS) in 0.01 M HCl. The plates were then incubated overnight at 37°C, and the optical density (OD) was determined using a microplate reader (Labsystems Multiskan MS, Finland) at 570 nm. Under these conditions, the OD is directly proportional to the number of viable cells in each well [33, 34]. All of the experiments were performed at least three times. […] The data from each experiment were plotted using the formazan absorbance versus the log of the concentration, and the plot was fitted to the dose-response (four-parameters) equation using the software Graph Pad Prism V5.0, obtaining the EC50 value per drug and per experiment. The data are expressed as the mean ± DS of the EC50s obtained from each experiment.

[1] = tested on: T. cruzi trypomastigotes (Y strain); test: MTT reduction viability assay on isolated trypomastigotes; type: cell-based, Trypanosoma cruzi; conditions: for EC50: Trypanosoma cruzi, Y strain, 24 hours exposure, MTT assay, mean ± SD, read-out: EC50 T. cruzi trypomastigote; for Selectivity index (VERO/T. cruzi): ratio of EC50 VERO cells to EC50 T. cruzi trypomastigote; for potency relative to nifurtimox: trypomastigote viability, comparison of EC50
Experimental: as §1, with “Trypomastigotes (Y strain, DTU T. cruzi II) were obtained from infected VERO cells (Chlorocebus sabaeus kidney fibroblasts obtained from ATCC, ATCC number: CCL-81). The cells were exposed to trypomastigotes (Y strain) at a 3:1 density (trypomastigote:cell). The trypomastigotes were allowed to infect the cells for 24 h, and the supernatant was then extracted. The trypomastigotes were released from VERO cells at 4 days after infection. The parasites were harvested and collected for viability assays. The effect” for “The effect”

[2] = tested on: T. cruzi in infected RAW 264.7 cells; test: Parasite DNA load by real-time PCR in infected RAW cells; type: cell-based, Trypanosoma cruzi; conditions: infected RAW cells, 48 hours after treatment, Fig 4
Description: DNA from infected RAW cells (murine macrophages, ATCC number: TIB-71) was isolated using Wizard Genomic DNA Purification Kit (Promega, USA) following the manufacturer’s instructions. DNA was quantified through […] absorbance measurements using a Varioskan spectrophotometer (Thermo Scientific, USA). To evaluate the parasite DNA load, we used a TaqMan-Duplex system, as described previously. To amplify an 84-bp T. cruzi satellite DNA sequence, we used the following primers: TcSt 4-Fw (5’-[…]-3’) and TcSt 1-Rev (5’-[…]-3’) and the TcSt-1 probe (5’-FAM-[…]-BHQ-1-3’). As an endogenous control, we used the Mus-F (5’-[…]-3’) and Mus-R (5’-[…]-3’) primers coupled with the MM-1 probe (5’-HEX-AAAGCATCTGCCTCCG-BHQ-1-3’) to amplify a 67-bp Mus musculus GAPDH sequence. The primers and probes were designed using Primer Express 3.0 Software (Applied Biosystems, USA) and manufactured by Integrated DNA Technologies (Coralville, IA, USA). The PCR reactions were performed using an ABI7300 real-time thermocycler (Applied Biosystems, USA). […] ROX was used as a reference dye. For both TaqMan assays, the thermal cycle consisted of a polymerase activation step carried out at 95°C for 10 min (one cycle) and a two-step amplification phase: 95°C for 15 s and 55°C for 45 s (40 cycles). Fluorescence was measured at the end of each amplification cycle. The data were analyzed using 7300 System SDS software with the SDS relative quantitation plug-in (Applied Biosystems, USA). All of the data were analyzed by the 2^-∆∆CT method, comparing the CTs of the T. cruzi gene versus that of GAPDH as well as comparing all of the samples with the controls. The parasite load is expressed as the relative DNA load compared with the controls.

[3] = tested on: T. cruzi trypomastigotes (Y strain) mitochondrial permeability transition pore; test: Mitochondrial permeability transition pore opening (calcein AM / CoCl2); type: cell-based, Trypanosoma cruzi; conditions: 5 μM, 1 hour, Fig 6B
Experimental: The opening of mitochondrial permeability transition pores was assessed using the calcein AM probe, adapting the method described by Huang et al (2014). Calcein-AM is a lipophilic probe that can enter the cell, including the mitochondria, and is then cleaved by cellular esterases, releasing the fluorescent probe calcein. T. cruzi trypomastigotes (Y strain, 5 x 10^6 parasites/mL) were stained with 100 nM calcein AM (Molecular Probes, Applied Biosytems, USA) and incubated at 37°C for 15 min in the presence of […] of CoCl2 to quench the cytosolic fluorescence of calcein. Then, the parasites were washed with PBS and resuspended in RPMI medium, without phenol red, supplemented with 0.3 mM of Ca^+2. The parasites were then seeded in 24-well plates and exposed to the different compounds (TPP^+-C8, TPP^+-C10, TPP^+-C11, and TPP^+-C12) at 1 or 5 μM for 1 hour. As a positive control, one group was exposed to ionomycin (0.5 μM). The samples were measured using a FACS Aria III flow cytometer (BD Biosciences, USA) with the 494/517 filter to detect calcein fluorescence. For every measurement, 5,000 events were recorded. The raw flow cytometry data were analyzed using FACSDiva 6.1 software (BD Biosciences). The results were analyzed using the median fluorescence intensity (MFI) from the frequency histograms. Thus, we used the median intensity of the control group (parasites incubated with calcein AM and CoCl2) to establish 100% of mitochondrial fluorescence, thereby establishing percent ratios between the treatment groups and the control.

## O=C(O[C@@H]1Cc2c(O)cc(O)cc2O[C@@H]1c1cc(O)c(O)c(O)c1)c1cc(O)c(O)c(O)c1 [EGCg, (-)-epigallocatechin 3-O-gallate]
Leishmania brasiliensis
  concentration at which the effect on viability is reached: over 60 μM
T. cruzi epimastigotes
  concentration at which the antiproliferative effect is observed: over 500 μM

## O=C(O)c1cc(O)c(O)c(O)c1 [GA, Gallic acid]
Trypanosoma brucei
  EC50: > 30 µM
Trypanosoma cruzi
  concentration range at which effects are exerted: millimolar range

## CC1CS(=O)(=O)CCN1/N=C/c1ccc([N+](=O)[O-])o1 (stereo not drawn) [Nifurtimox, reference compound]
VERO cells
  EC50: > 100 µM
[1]
  EC50: 4.1 ± 0.9 µM
  Selectivity index (VERO/T. cruzi): > 24

## O=C(OCCCCCCCCCCC[P+](c1ccccc1)(c1ccccc1)c1ccccc1)c1cc(O)c(O)c(O)c1.[Br-] [TPP^+-C11, triphenyl(11-((3,4,5-trihydroxybenzoyl)oxy)-undecyl) phosphonium bromide]
VERO cells
  EC50: > 100 µM
[1]
  EC50: 9.2 ± 0.1 µM
  Selectivity index (VERO/T. cruzi): > 11
  potency relative to nifurtimox: almost equal in potency to nifurtimox
[2]
  parasite load (qPCR): reduced the parasite load in a concentration-dependent manner
[3]
  mitochondrial calcein fluorescence (median fluorescence intensity): 41 % of the control

## O=C(OCCCCCCCC[P+](c1ccccc1)(c1ccccc1)c1ccccc1)c1cc(O)c(O)c(O)c1.[Br-] [TPP^+-C8, triphenyl(8-((3,4,5-trihydroxybenzoyl)oxy)-octyl) phosphonium bromide]
VERO cells
  EC50: > 100 µM
[1]
  EC50: 4.8 ± 0.9 µM
  Selectivity index (VERO/T. cruzi): > 21
  potency relative to nifurtimox: almost equal in potency to nifurtimox
[2]
  parasite load (qPCR): the lowest concentrations of TPP^+-C8 increased the parasite load
